Values quoted from earlier work in patent US20190167601A1, “APPARATUS AND METHOD FOR ZERO ORDER DRUG DELIVERY FROM MULTILAYER AMPHIPHILIC CO-NETWORKS” (The University of Akron, priority 2016, published 2019).
Where a name gives a salt, the structure may show the parent alone.

maximum drug solubility in water [µg/mL]	SMILES
8000	CC(C)OC(=O)CCC/C=C\C[C@@H]1[C@@H](CC[C@@H](O)CCc2ccccc2)[C@H](O)C[C@@H]1O [Latanoprost]
168	COc1c(N2C[C@@H]3CCCN[C@@H]3C2)c(F)cc2c(=O)c(C(=O)O)cn(C3CC3)c12 [Moxifloxacin Hydrochloride]
